For data set [1], the system named is HSV-1 envelope. Put plainly: HSV-1 envelope interaction studies (intercalation assay). As to conditions: 2 and 10 µM, pre-incubation at 37 °C, Vero cells. Type of data set: cell-based, herpes simplex virus-1.
Data set [2] has as its system VSV Indiana strain. The experiment in a line: microbe, parasite or virus in culture. Type of data set: cell-based, vesicular stomatitis Indiana virus. The conditions noted are these: Vesicular stomatitis virus, HEK-293T, 1 h, read-out: VSV, EC50.
Data set [3] is described as follows: Solubilization in 15% DMSO in water. As to conditions: for solubility: aqueous with cosolvent or surfactant or cyclodextrin, kinetic from dmso stock.
Protocol: To perform this measurement, the compound was dissolved in DMSO and then diluted with water to achieve a solution containing 15% DMSO. The solution was centrifuged, and the resulting supernatant was lyophilized (evaporated) to dryness. Subsequently, the dry residue was dissolved in DMSO, and the concentration of the compound dissolved in DMSO was determined spectrophotometrically.
The mixtures were then centrifuged at 20,000 rcf for 5 min; 500 μL of the supernatant were collected and lyophilized; 76 µL of DMSO were added to the dry residue, and the absorbance was measured at the maximum absorption wavelength for compounds in solutions diluted 200 times with methanol. The data obtained were recalculated according to the law of dilutions and Beer’s law to obtain the initial concentrations of the compounds solubilized in 15% DMSO in water.
The subject of data set [4] is HSV-1, strain MacIntyre. Put plainly: Photodynamic inactivation of HSV-1 (virus treated with compound, plaque assay). The class given is cell-based, herpes simplex virus-1. As to conditions: for EC50: Human alphaherpesvirus 1, 10 min, HSV-1 10^4 PFU/mL, plaque assay.
Data set [5] concerns HSV-1, strain MacIntyre. Put plainly: HSV-1 titer reduction assay in Vero cells. As to conditions: 10 µM, 48 h; for viral replication and spread in HSV-1-infected Vero cell culture: inside cell culture (Figure 6C); for anti-HSV-1 activity in Vero cells: viral titer in medium supernatant.
The test system of data set [6] is HSV-1 virus-cell fusion. The experiment in a line: HSV-1-based fusion assay. The class given is cell-based, herpes simplex virus-1. As to conditions: for plaque numbers in fusion assay: Vero cells; for plaque size in fusion assay: Vero monolayers in presence of compound. The procedure: In the fusion assay, HSV-1 was attached to Vero cells at 4 °C, but virus–cell fusion was blocked due to the low temperature.
HSV-1 (100 PFU/mL) was then added to the cells and incubated at 4 °C for 2 h. After incubation, the cell monolayers were washed three times with ice-cold PBS to remove un-adsorbed virus, and fresh ice-cold medium containing the tested compounds (0, 0.08, 2, and 10 µM) was added to the cells and incubated for 2 h at 4 °C. After another 2 h incubation at 37 °C, the medium was aspirated, the cells were washed with PBS and fresh medium containing 1.5% carboxymethylcellulose was added to the cells.

Data set [7] in a line: Light-induced cytotoxicity (photocytotoxicity) in Vero cells. The class given is cell-based, African Green Monkey. As to conditions: African green monkey, Vero cells; blue light 465–480 nm, 10 min, then 48 h; read-out: cell viability of Vero cells after irradiation. The procedure:
(§1) Subsequently, cells treated with the compounds were irradiated with LEDs (465–480 nm, 30 mW/cm^2) for 10 min at RT. As a negative control, compound-treated cells were incubated for 10 min in daylight at RT. Then, both the irradiated and non-irradiated cell monolayers were incubated at 37 °C in the dark for 48 h. Subsequently, the cell culture medium was aspirated and the cytotoxicity of the tested perylene derivatives was determined based on cell viability using Cell Counting Kit-8 (Dojindo Molecular Technologies, Munich, Germany) according to the manufacturer’s instructions. Note: all manipulation with samples was performed in daylight (Figure 7K).

Data set [8] relates to Vero cells. The description is as above. The class given is cell-based, African Green Monkey. As to conditions: blue light 10 min vs daylight, 0–10 µM, 48 h. The procedure:
as §1

The format of data set [9] is physicochemical. As to conditions: methanol, DPBF trap, 450–470 nm, relative to riboflavin.
[10] abbreviates: 10 min in daylight, read-out: EC50 (µM) in Daylight.
Setting [11] is: blue light 465–480 nm, 30 mW/cm^2, 10 min, read-out: EC50 (µM) under Blue Light.

Values after ≈ are worked out from the molar mass of the structure shown. “Also recorded” adds a separate entry of the source. Like-named read-outs stand apart in the source and are kept apart here.

Broadly, the EC50 is the concentration at which the effect is half-maximal. The term solubility denotes the dissolved amount per volume that the medium holds. A lower solubility goes with a poorly soluble substance. A word on the viability: it is a read-out of living cells in per cent, often relative to untreated cells. Turning to `CCCCc1ccc2c3cccc4c(C#Cc5cn([C@@H]6O[C@H](CO)[C@@H](O)[C@@H]6O)c(=O)[nH]c5=O)ccc(c5cccc1c52)c43` [Compound 9a, 5-[9(10)-Butylperylen-3-ylethynyl]-arabino-uridine], the “plaque formation after pretreatment of HSV-1” value in data set [1] is given as “completely inhibited the ability of the virus to form plaques”. Moreover, the EC50 in [2] is 2000 ± 1800 nM; in data set [4] (setting [10]), 2.23 µM; in data set [4] (setting [11]) it was 0.102 µM. For the same molecule, the “solubility in 15% DMSO in water” value in data set [3] is reported as “relatively high solubility”. Further, in data set [3], the concentration in solution (solubility) was 0.6 µM (≈ 0.345 µg/mL). Besides, the “Decrease in EC50 (Fold)” value in data set [4] is reported as 21.9 fold. Moreover, the “viral replication and spread in HSV-1-infected Vero cell culture” value in data set [5] was “did not suppress viral replication and spread”. Moreover, the “anti-HSV-1 activity in Vero cells” value in data set [5] was “completely inhibited viral replication; also recorded: higher antiviral potency compared to acyclovir”. Moreover, the “plaque numbers in fusion assay” value in data set [6] (0.08 µM) is “plaque numbers were similar to controls”; in data set [6] (most pronounced at 2 and 10 µM) it was “reduction in plaque numbers”. The “plaque size in fusion assay” value in [6] is reported as “significantly smaller plaques”. In addition, the viability at 48 h in data set [7] is 115 to 128%. Besides, the “photocytotoxicity to Vero cells” value in data set [8] was “did not increase the cytotoxicity”. Also, in [9], the “1O2 Quantum Yield” value worked out at 31.9 ± 8.5%.

As for `CCCCc1ccc2c3cccc4c(C#Cc5cn([C@H]6C[C@H](O)[C@@H](CO)O6)c(=O)[nH]c5=O)ccc(c5cccc1c52)c43` [Compound 11a, 5-[9(10)-Butylperylen-3-ylethynyl]-deoxy-uridine], the “plaque formation after pretreatment of HSV-1” value in [1] is recorded as “completely inhibited the ability of the virus to form plaques”. Besides, the results for the concentration giving a half-maximal response (EC50) in data set [2], in data set [4] (setting [10]) and in data set [4] (setting [11]) were 500 ± 100 nM, 1.83 µM and 0.098 µM, respectively. In addition, the “solubility in 15% DMSO in water” value in [3] is reported as “relatively high solubility”. The solubility in [3] turned out to be 0.51 µM (≈ 0.285 µg/mL). The “Decrease in EC50 (Fold)” value in data set [4] was found to be 18.6 fold. In addition, the “viral replication and spread in HSV-1-infected Vero cell culture” value in data set [5] was “did not suppress viral replication and spread”. For the same molecule, in data set [5], the “anti-HSV-1 activity in Vero cells” value is on record as “completely inhibited viral replication; also recorded: higher antiviral potency compared to acyclovir”. The “plaque numbers in fusion assay” value in data set [6] (0.08 µM) is “plaque numbers were similar to controls”; in data set [6] (most pronounced at 2 and 10 µM), “reduction in plaque numbers”. For the same molecule, the “plaque size in fusion assay” value in data set [6] is listed as “significantly smaller plaques”. The “1O2 Quantum Yield” value in data set [9] is listed as 23.6 ± 1.4%.

The record behind these values is article PMC10671050, “Alkyl Derivatives of Perylene Photosensitizing Antivirals: Towards Understanding the Influence of Lipophilicity” (International Journal of Molecular Sciences, 2023).
